Laboratory results: PMC11284600, “Many human pharmaceuticals are weak inhibitors of the cytochrome P450 system in rainbow trout (Oncorhynchus mykiss) liver S9 fractions” (Frontiers in Toxicology, 2024)
Structures can show the parent of a compound that is named as a salt.

Tests used:
[1] = target: T1, CYP3A-like 7-benzyloxy-4-trifluoromethylcoumarin O-debenzylase (BFCOD) activity in rainbow trout liver S9 fractions (Oncorhynchus mykiss, UniProt O42563); assay: BFCOD inhibition in RT-S9 (IC50 shift assay); settings: within the tested concentration range
T1 sequence (O42563 1-518): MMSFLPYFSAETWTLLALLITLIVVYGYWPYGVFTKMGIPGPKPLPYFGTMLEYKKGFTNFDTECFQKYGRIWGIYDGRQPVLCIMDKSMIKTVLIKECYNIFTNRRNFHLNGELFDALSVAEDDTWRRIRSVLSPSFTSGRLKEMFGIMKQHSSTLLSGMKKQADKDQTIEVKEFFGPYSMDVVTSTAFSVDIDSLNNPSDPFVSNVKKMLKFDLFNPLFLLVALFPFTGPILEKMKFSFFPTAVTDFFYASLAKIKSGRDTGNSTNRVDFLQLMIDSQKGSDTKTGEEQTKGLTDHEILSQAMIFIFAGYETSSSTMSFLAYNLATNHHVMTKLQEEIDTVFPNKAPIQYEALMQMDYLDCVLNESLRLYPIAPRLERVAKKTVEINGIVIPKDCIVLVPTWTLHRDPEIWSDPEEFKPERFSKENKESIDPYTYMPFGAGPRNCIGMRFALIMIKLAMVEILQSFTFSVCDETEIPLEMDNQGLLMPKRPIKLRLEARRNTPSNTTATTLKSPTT
Method: (§1) Commercially available rainbow trout (O. mykiss) liver S9 fractions were used as the enzyme source for the in vitro P450 inhibition assays (RTL-S9, total protein concentration 20 mg/mL, Primacyt Cell Culture Technology GmbH).
(§2) The inhibitory impacts of the test substances toward the rainbow trout liver P450 system in vitro were assessed based on EROD and BFCOD as the marker reactions for CYP1A- and CYP3A-like isoenzyme activities, respectively. […] In this study, the EROD (CYP1A) and BFCOD (CYP3A) activities were determined using 0.5 mg/mL RT-S9 (total protein) concentration and 1 or 2 mM NADPH, respectively. […] All incubations were performed in duplicate in a total volume of 100 µL of potassium phosphate buffer (0.1 M, pH 7.8), at 11°C ± 1°C on a thermostated orbital shaker (LLG Labware). The reactions were terminated by the addition of 37.5 μL of the quenching solution (0.5 M Trizma base/acetonitrile 20:80, v/v). […] The quantitation of the metabolites (resorufin or HFC) was based on linear regression of the respective standards prepared in the potassium phosphate buffer. Negative control incubations were performed separately without the marker substrate, without cofactors, and without RT-S9 to ensure that the detected fluorescence signals arise from the metabolic conversion of the marker substrates (ER or BFC) into their respective metabolites (resorufin or HFC, respectively).
(§3) In this study, the preincubation was performed using three different protocols A-C (Table 2). In the first protocol, the test substance (each separately at six different concentrations between 0.01 and 500 µM) and RT-S9 were preincubated without any cofactors, and the marker reaction was initiated by the addition of the marker substrate (ER or BFC) and NADPH (Protocol A). This enabled the determination of the inhibitory impact of the parent form of the test substance on the respective marker activity. In the second protocol, the test substance and RT-S9 were preincubated together with NADPH, and the marker reaction was initiated by the addition of the marker substrate (Protocol B). In this manner, the test substance could undergo P450 metabolism already during the preincubation step, which may reduce its concentration and thus the inhibitory impact toward the marker reactions, or result in the formation of reactive or inhibitory metabolites, which typically increases the inhibitory impact compared with the parent form (Protocol A). […] In this manner, the test substance could undergo both P450 and phase II metabolism already during the preincubation step, which may likewise reduce its concentration and inhibitory impact toward the marker reactions, and even help eliminate the possible reactive metabolites via glutathione conjugation. […] Additionally, positive control incubations of the marker substrates (ER or BFC) without the test substance (zero inhibitor concentration) were included in each series to determine the basal EROD or BFCOD activity in RT-S9.
(§4) The residual solvent concentration was kept constant at all inhibitor concentrations, including zero, to eliminate its impact on the IC50 concentrations derived from the empirical data. The IC50 shifts for Protocols B and C were calculated according to Eq. 2: IC50 shift=IC50,Protocol A/IC50,Protocol B or Protocol C (2)
(§5) In this manner, the impact of the test substance’s own metabolism (during the preincubation step) on the inhibitory impact could be evaluated.

[2] = target: T2, CYP3A-like BFCOD activity (Oncorhynchus mykiss, UniProt O42563); assay: BFCOD inhibition in RT-S9 (IC50 shift assay); settings: both, Christophersen, Bornhoeved, rainbow trout (Oncorhynchus mykiss), s9, pH 7.8
T2 sequence (O42563 1-518): T1 sequence (O42563 1-518)
Method: as §1, §2, §3, §4, §5

[3] = Unbound fraction in RT-S9 by rapid equilibrium dialysis; type: in vitro ADME, rainbow trout (Oncorhynchus mykiss); settings: rainbow trout liver S9 fractions (RT-S9), 10 µM test substance, 1 mg/mL RT-S9, pH 7.8, 11°C, n = 3, read-out: Unbound fraction (fU,RT-S9)
Method: The unbound (free) fractions of the test substances in RT-S9 (fU,RT-S9) were determined using rapid equilibrium dialysis assay (RED, Thermo Fisher Scientific), which exploits two-compartment inserts separated by a dialysis membrane with a molecular weight cut-off of 8,000 Da. In the RED assay, each test pharmaceutical (10 μM) was incubated in triplicate with RT-S9 (1 mg/mL) in 50 mM potassium phosphate buffer (pH 7.8) in a total volume of 300 µL on one side of the membrane (protein-containing chamber), and 350 μL of the plain phosphate buffer on the other side (protein-free chamber). To reach equilibrium, the samples were incubated on an orbital shaker (C25KC Incubator shaker, New Brunswick Scientific, 120 rpm) at 11°C for 4 h. Next, 50 µL aliquots were collected from both chambers separately and diluted by adding 50 µL of the plain buffer (to the protein-containing sample) or 50 μL of 1 mg/mL RT-S9 in the buffer (to the protein-free sample). Finally, the RT-S9 protein was precipitated by the addition of acetonitrile (+200 μL) to both samples separately, followed by incubation on ice for 30 min and centrifugation (16100 g, 15 min). The test substance concentrations in the supernatants of both samples were determined using liquid chromatography. The instrumentation and the analytical methods used for chromatographic analyses are described in detail in the Supplementary Table S2. The unbound fractions of the test substances in RT-S9 (fU,RT-S9) were calculated according to Eq. 3: fU,RT−S9=1− PC−PF/PC (3) where [PC] and [PF] are the test substance concentrations in the samples collected from protein-containing and protein-free chambers, respectively. To account for the test substance’s binding to the RT-S9, the nominal IC50 values were corrected for unbound fraction (fU,RT-S9) according to Eq. 4: Unbound IC50=Nominal IC50×fU,RT−S9 (4)

[4] = system: Human CYP1A; settings: ref Drugbank unless otherwise stated (Dragovic et al., 2013; Conard and Ober 1984; Niwa et al., 2005); cited from earlier work
[5] = system: CYP1A-like ethoxyresorufin O-deethylase (EROD) activity; assay: in vitro; settings: both, Christophersen, Bornhoeved, rainbow trout (Oncorhynchus mykiss); for inhibition at 10 min: pH 7.8
Method: as §1, §2, §3, §4, §5

[6] = system: CYP1A-like ethoxyresorufin O-deethylase (EROD) activity in rainbow trout liver S9 fractions; assay: in vitro
Method: as §1, §2, §3, §4, §5

[7] = parameters: method as in PubChem; settings: (e) empirical; ref PubChem; cited from earlier work
[8] = parameters: method as in Chemaxon; settings: pH 7.8; (e) empirical; ref Chemaxon; cited from earlier work
[9] = system: CYP1A-like EROD activity; assay: in vitro; settings: both, Christophersen, Bornhoeved, rainbow trout (Oncorhynchus mykiss)
Method: as §1, §2, §3, §4, §5

[10] = pH 7.8, EROD inhibition in RT-S9, Nominal IC50

Row | Structure (SMILES) | BFCOD inhibition in RT-S9 (in words) [1] | IC50 at 20 min [2] [µM] | fraction unbound at 4 h, 10 µM [3] | Human CYP1A interactions: substrate status [4] | inhibition at 10 min [5] [%] | IC50 at 10 min [5, 10] [µM] | EROD inhibition in RT-S9 (in words) [6] | IC50 [6] [µM] | LogKOW [7] | Water solubility [8] | IC50 shift at 10 min ([9]; s9, pH 7.8, EROD inhibition in RT-S9, IC50 shift (A/B)) | IC50 shift at 10 min ([9]; s9, pH 7.8, EROD inhibition in RT-S9, IC50 shift (A/C)) | IC50 at 10 min ([5]; pH 7.8, EROD inhibition in RT-S9, Unbound IC50) [µM]
1 | O=C(NCC1CCCCN1)c1cc(OCC(F)(F)F)ccc1OCC(F)(F)F (stereo not drawn) [Flecainide, flecainide acetate] | did not significantly inhibit | > 25 | 0.36 ± 0.03 | Substrate | ≤ 50 | > 100 | inhibited selectively only EROD activity | 82 ± 14 |  |  |  |  | 
2 | CN(C)CCc1c[nH]c2ccc(C[C@H]3COC(=O)N3)cc12 [Zolmitriptan, zolmitriptan] | did not significantly inhibit |  |  | Substrate |  |  |  |  | 1.792 (e) |  |  |  | 
3 | CNCC[C@@H](Oc1ccccc1C)c1ccccc1 [Atomoxetine, atomoxetine hydrochloride] | did not significantly inhibit | > 25 | 0.2 ± 0.03 |  | ≤ 50 | > 100 | inhibited selectively only EROD activity |  |  | 27.8 (e) mg/mL | 0.9 ± 0.1 | 1.1 | 20 ± 4
